From the supplement of paper PMC4862054

Legend:
Settings in all cases: incubation time: 72 h
BT-474 [1] = assay: normalised viability (% of control), CellTiter-Blue; higher = more viable cells (about 100 = DMSO control)
Outline: (§1)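 Normalised viability is given for a single listed concentration of the series. In 384-well plates, breast cancer cell lines were incubated 72 h with compound, then read with CellTiter-Blue (2 h, 37 °C) at 560/590 nm. Per-plate scaling set vehicle to 100 and a positive kill control to 0, with Z'-factor quality control.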

CAL-120 [2] = assay: as above
Outline: as §1

CAL-148 = assay: as above
Outline: as §1

CAL-51 [3] = assay: as above
Outline: as §1

CAL-85-1 [4] = assay: as above
Outline: as §1

HCC1143 = assay: as above
Outline: as §1

HCC1599 [5] = assay: as above
Outline: as §1

HCC1937 = assay: as above
Outline: as §1

HDQ-P1 [6] = assay: as above
Outline: as §1

Hs578T [7] = assay: as above
Outline: as §1

MDA-MB-231 [8] = assay: as above
Outline: as §1

MDA-MB-468 = assay: as above
Outline: as §1

MFM-223 = assay: as above
Outline: as §1

SK-BR-3 [9] = assay: as above
Outline: as §1

BT-474 [10] = assay: drug sensitivity score (DSS), CellTiter-Glo (DSS (AUC-based score)); higher = stronger drug effect (viability inhibition or cytotoxicity); extreme values may be limits of the assay
Outline: (§2)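 The drug sensitivity score reflects the area under a fitted dose-response curve. To obtain it, breast cancer cells in 20 µl suspension were seeded into 384-well plates containing compound at 5 concentrations, 10-fold apart over a compound-specific 10,000-fold range, and incubated 72 h. CellTox Green fluorescence (485/520 nm) was read first and CellTiter-Glo luminescence second, after 10 min at room temperature. Each plate was normalised to 0.1 % DMSO and a positive kill control.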

CAL-120 [11] = assay: as above
Outline: as §2

CAL-51 [12] = assay: as above
Outline: as §2

CAL-85-1 [13] = assay: as above
Outline: as §2

DU-4475 = assay: as above
Outline: as §2

HCC1599 [14] = assay: as above
Outline: as §2

HDQ-P1 [15] = assay: as above
Outline: as §2

Hs578T [16] = assay: as above
Outline: as §2

MDA-MB-231 [17] = assay: as above
Outline: as §2

SK-BR-3 [18] = assay: as above
Outline: as §2

CO[C@H]1/C=C\C=C(/C)C(=O)NC2=CC(=O)C(NCCN(C)C)=C(C[C@@H](C)C[C@H](OC)[C@H](O)[C@@H](C)/C=C(\C)[C@@H]1OC(N)=O)C2=O [Alvespimycin]
normalised viability [%]
Settings | 0.3 nM | 1 nM | 3 nM | 10 nM | 100 nM | 1000 nM
BT-474 [1] | – | 116 | – | – | 28.3 | 27.8
CAL-51 [3] | 97 | – | 96 | 86.8 | – | –
CAL-85-1 [4] | 111 | – | 85.5 | 95.1 | – | –
CAL-120 [2] | – | 108 | – | – | 26.7 | 17.4
CAL-148 | 107 | – | 102 | 101 | – | –
HCC1143 | – | 103 | – | – | 46.8 | 37.7
HCC1599 [5] | – | 72.9 | – | – | 43 | 31.3
HCC1937 | – | 110 | – | – | 40.7 | 29
HDQ-P1 [6] | 99.3 | – | 102 | 112 | – | –
Hs578T [7] | – | 102 | – | – | 43.6 | 40.1
MDA-MB-231 [8] | – | 99 | – | – | 35.2 | 28.3
MDA-MB-468 | – | 111 | – | – | 44.6 | 29.3
MFM-223 | – | 97.4 | – | – | 27.3 | 23.4
SK-BR-3 [9] | – | 97.7 | – | – | 19 | 16.3

Settings | drug sensitivity score
BT-474 [10] | 11.6
CAL-51 [12] | 13.4
CAL-85-1 [13] | 13.9
CAL-120 [11] | 8.6
DU-4475 | 17.6
HCC1599 [14] | 4.92
HDQ-P1 [15] | 14
Hs578T [16] | 10.6
MDA-MB-231 [17] | 13.3
SK-BR-3 [18] | 14.5

Cc1ccc(-n2nc(C(C)(C)C)cc2NC(=O)Nc2ccc(OCCN3CCOCC3)c3ccccc23)cc1 [Doramapimod]
normalised viability [%]
Settings | 3 nM | 10 nM | 30 nM | 100 nM | 1000 nM | 10000 nM
BT-474 [1] | – | 101 | – | – | 101 | 96.9
CAL-51 [3] | 116 | – | 105 | 95.7 | – | –
CAL-85-1 [4] | 94.4 | – | 85.4 | 80.4 | – | –
CAL-120 [2] | – | 95.4 | – | – | 81.2 | 95.8
CAL-148 | 90 | – | 90.9 | 87.5 | – | –
HCC1143 | – | 94.2 | – | – | 92.1 | 90.3
HCC1599 [5] | – | 93.8 | – | – | 110 | 91.2
HCC1937 | – | 45.3 | – | – | 90.2 | 97.9
HDQ-P1 [6] | 88.8 | – | 78 | 82.4 | – | –
Hs578T [7] | – | 111 | – | – | 120 | 113
MDA-MB-231 [8] | – | 99.2 | – | – | 99 | 109
MDA-MB-468 | – | 96 | – | – | 115 | 119
MFM-223 | – | 103 | – | – | 92.8 | 81.5
SK-BR-3 [9] | – | 91.1 | – | – | 98.2 | 97.1

Settings | drug sensitivity score
BT-474 [10] | 1.64
CAL-51 [12] | 0
CAL-85-1 [13] | 0
CAL-120 [11] | 0
DU-4475 | 0
HCC1599 [14] | 0
HDQ-P1 [15] | 1.32
Hs578T [16] | 0
MDA-MB-231 [17] | 0
SK-BR-3 [18] | 0
